From patent US10265289B2, “Method and medicines for treating melanoma” (SICHUAN JIUZHANG BIOLOGICAL SCIENCE AND TECHNOLOGY CO., LTD., priority 2015, dated 2019)

What was measured:
[1] = tested on: mouse melanoma B16; experiment: Example 7: chlorogenic acid-5-flurouracil combination against mouse melanoma B16; details: 5-flurouracil 500 mg/kg × 4, i.p.
Description: Next day after inoculation, animals were divided into groups, weighed, and administration of drugs started. Normal saline was administrated to mice in the negative control group by peritoneal injection at 0.2 ml/10 g, once a day.
Each group contains 12 animals. […] Tumor control rate (%) was calculated based on tumor weight.

[2] = tested on: mouse melanoma B16; experiment: Example 6: chlorogenic acid-adriamycin or chlorogenic acid-cisplatin combination against mouse melanoma B16; assay type: in vivo
Source text: (§1) Each group contains 15 animals.

[3] = tested on: M1-type macrophage markers iNOS, IL-12, TNF-α and M2-type macrophage marker Arg; experiment: Example 1: macrophage marker expression (flow cytometer, real-time fluorescent quantified PCR) in mouse melanoma B16 model; assay type: in vivo; details: 5, 10, 20 mg/kg i.p. once a day for 13 days
Description: Each group has 15 animals. […] After successful anesthesia of mice, bilateral eyeballs were removed and mice were killed by bleeding. […] Mice were placed in supine position, with segmental […] being toward up. 5 ml serum-free DMEM medium preheated at 37° C. was drawn out using 5 ml aseptic syringe, and middle-lower abdominal skin of mice was lifted with a tweezer, then 5 ml pre-suctioned serum-free DMEM medium preheated at 37° C. was injected to abdominal cavity (note: needlepoint being toward up, avoiding intestinal canal and fat). After that, bilateral peritoneal wall was gently kneaded and pressed for about 20-30 seconds, to make the intraperitoneal fluid fully flow. When collecting the peritoneal fluid, a little cut was opened on mouse hypogastric region using a surgical scissor, and skin was […] toward two sides, to thoroughly expose the peritoneum, then it was wiped and cleaned with 75% alcoholic cotton balls for sterilization. Further, about […] of little cut was opened on mouse peritoneum using ophthalmic scissors, and the peritoneal fluid was drawn back with 5 ml aseptic syringe (Try not to absorb intestinal canal and fat, otherwise, it is easy to cause contamination of fibroblasts), then transferred to 15.0 ml centrifuge tube and centrifugated at 1200 rpm/min for 5 min, to remove the supernatant fluid. The residue was re-suspended in sterile normal saline at […] and transferred into 1.5 ml centrifuge tube for use. […] During enzymatic digestion, centrifuge tubes were shaken every 10-15 minutes. When the fluid in centrifuge tubes became turbid, the piece of tumor tissue had already disintegrated and lost its massive shape. Once being shaken, the mass would become cell clumps or single cell, indicating the tumor tissue piece had already been fully digested. The enzymatic digestion time can be suitably shortened or elongated as the digestion degree of tumor tissue. […] Cells were re-suspended in sterile normal saline at […], and transferred to 1.5 ml centrifuge tubes for use. (3) Cell phenotype was detected by flow cytometer, and the corresponding marker of same sample was determined using real-time fluorescent quantified PCR. Results were shown in FIGS. 1-3, in which FIGS. 1-3 are respectively the detection result graphs of iNOS, IL-12, Arg expression in example 1. FIG. 4 is the detection result graph of TNF-α expression in example 1.

[4] = tested on: M1-type macrophage marker iNOS and M2-type macrophage marker Arg; experiment: Example 2: maintenance of M1-type macrophages (LPS+INFγ) in mouse melanoma B16 model; assay type: in vivo; details: LPS + INFγ + chlorogenic acid 5, 10, 20 mg/kg, dose-dependent
Description: Each group includes 15 animals. After successful anesthesia of mice, bilateral eyeballs were removed and mice were killed by bleeding. […] Mice were placed in supine position, with segmental […] being toward up. 5 ml serum-free DMEM medium preheated at 37° C. was drawn out using 5 ml aseptic syringe, and middle-lower abdominal skin of mice was lifted with a tweezer, then 5 ml pre-suctioned serum-free DMEM medium preheated at 37° C. was injected to abdominal cavity (note: needlepoint being toward up, avoiding intestinal canal and fat). After that, bilateral peritoneal wall was gently kneaded and pressed for about 20-30 seconds, to make the intraperitoneal fluid fully flow. When collecting the peritoneal fluid, a little cut was opened on mouse hypogastric region using a surgical scissor, and skin was […] toward two sides, to thoroughly expose the peritoneum, then it was wiped and cleaned with 75% alcoholic cotton balls for sterilization. […] (3) Cell phenotype was detected by flow cytometer, and the corresponding marker of same sample was determined using real-time fluorescent quantified PCR. […]

[5] = tested on: mouse melanoma B16; experiment: Example 4: tumor inhibitory rate of chlorogenic acid against mouse melanoma B16
Source text: (§2) After inoculation, animals were divided into groups next day, weighed, and administration of drugs started.
Each group includes 15 animals.

[6] = tested on: mouse melanoma B16; experiment: Example 5: chlorogenic acid-cyclophosphamide combination against mouse melanoma B16
Source text: as §2, §1

[7] = tested on: M1-type and M2-type macrophages (iNOS, IL-10, Arg expression); experiment: Example 3: transformation of M2-type to M1-type macrophages (IL-4) in mouse melanoma B16 model; assay type: in vivo; details: IL-4 + chlorogenic acid 5, 10, 20 mg/kg
Description: Each group includes 15 animals. After successful anesthesia of mice, bilateral eyeballs were removed and mice were killed by bleeding. […] Mice were placed in supine position, with segmental […] being toward up. 5 ml serum-free DMEM medium preheated at 37° C. was drawn out using 5 ml aseptic syringe, and middle-lower abdominal skin of mice was lifted with a tweezer, then 5 ml medium was injected to abdominal cavity (note: needlepoint being toward up, avoiding intestinal canal and fat). After that, bilateral peritoneal wall was gently kneaded and pressed for about 20-30 seconds, to make the intraperitoneal fluid fully flow. When collecting the peritoneal fluid, a little cut was opened on mouse hypogastric region using a surgical scissor, and skin was […] toward two sides, to thoroughly expose the peritoneum, then it was wiped and cleaned with 75% alcoholic cotton balls for sterilization. […] (3) Cell phenotype was detected by flow cytometer, and the corresponding marker of same sample was determined using real-time fluorescent quantified PCR. […]

[8] = dose-dependent, strongest at 20 mg/kg
[9] = cyclophosphamide 60 mg/kg × 1, i.p.

Structure (SMILES): O=c1[nH]cc(F)c(=O)[nH]1 [5-flurouracil, 5-fluorouracil]
- Tumor inhibitory rate (%) [1]: 86.80%
- Tumor weight (g) x ± SD [1]: 0.30 ± 0.18 g
- Body weight (g) x ± SD Initial ([1]; BALB/c mice, before dosing): 19.17 ± 0.72 g

Structure (SMILES): N.N.[Cl][Pt][Cl] [Cisplatin, cisplatin]
- Tumor inhibitory rate (%) ([2]; cisplatin 3 mg/kg × 6, i.p.): 65.97%
- Tumor weight (g) x ± SD ([2]; cisplatin 3 mg/kg × 6, i.p.): 1.58 ± 0.69 g

Structure (SMILES): COc1cccc2c1C(=O)c1c(O)c3c(c(O)c1C2=O)C[C@@](O)(C(=O)CO)C[C@@H]3O[C@H]1C[C@H](N)[C@H](O)[C@H](C)O1 [Adriamycin, adriamycin]
- Body weight change rate (%) ([2]; adriamycin 3 mg/kg × 6, i.p.): 22.39%
- Tumor inhibitory rate (%) ([2]; adriamycin 3 mg/kg × 6, i.p.): 58.89%
- Tumor weight (g) x ± SD ([2]; adriamycin 3 mg/kg × 6, i.p.): 1.90 ± 0.56 g

Structure (SMILES): O=C(/C=C/c1ccc(O)c(O)c1)O[C@@H]1C[C@](O)(C(=O)O)C[C@@H](O)[C@H]1O [Chlorogenic acid, 3-O-caffeoylquinic acid]
- expression of M1-type macrophage marker TNF-α (FIG. 4) [3]: promote the expression
- expression of M1-type macrophage marker IL-12 (FIG. 2) [3, 8]: obviously promote the expression
- expression of M1-type macrophage marker iNOS (FIG. 1) [3, 8]: obviously promote the expression
- expression of M2-type macrophage marker Arg (FIG. 3) [3, 8]: obviously inhibit the expression
- effect on the anti-tumor effect of adriamycin ([2]; 20 mg/kg chlorogenic acid + 3 mg/kg adriamycin): significantly potentialize
- effect on the anti-tumor effect of cisplatin ([2]; 20 mg/kg chlorogenic acid + 3 mg/kg cisplatin): significantly potentialize
- state of M2-type macrophage marker Arg (FIG. 6) [4]: relatively lower state
- expression state of M1-type macrophage markers (iNOS, FIG. 5) ([4]; highest at 20 mg/kg): maintain the high expression state
- Tumor inhibitory rate (%) ([5]; 5 mg/kg × 13, i.p. once a day): 17.23%
- Tumor weight (g) x ± SD ([5]; 5 mg/kg × 13, i.p. once a day): 2.70 ± 0.76 g
- Tumor inhibitory rate (%) ([5]; 10 mg/kg × 13, i.p. once a day): 43.87%
- Tumor weight (g) x ± SD ([5]; 10 mg/kg × 13, i.p. once a day): 1.83 ± 0.86 g
- Tumor inhibitory rate compared with cyclophosphamide ([5]; 20 mg/kg chlorogenic acid vs 60 mg/kg cyclophosphamide): close to that of cyclophosphamide
- Tumor inhibitory rate (%) ([5]; 20 mg/kg × 13, i.p. once a day): 48.66%
- Tumor weight (g) x ± SD ([5]; 20 mg/kg × 13, i.p. once a day): 1.68 ± 0.69 g
- effect on growth of mouse melanoma B16 ([5]; intraperitoneal injection, 5-20 mg/kg × 13, certain dose-effect relationship): obviously inhibitory effect
- effect of combination on anti-tumor effects of cyclophosphamide ([6]; 20 mg/kg chlorogenic acid combined with cyclophosphamide 60 mg/kg): obviously improve anti-tumor effects of cyclophosphamide
- growth of M1-type macrophage cells (FIG. 7) [7]: positive correlation with the dose
- growth of M2-type macrophage cells (FIG. 8) [7]: negative correlation with the dose

Structure (SMILES): O=P1(N(CCCl)CCCl)NCCCO1 (stereo not drawn) [cyclophosphamide, reference compound]
- Tumor inhibitory rate (%) [5, 9]: 57.79%
- Tumor weight (g) x ± SD [5, 9]: 1.38 ± 0.62 g
- Body weight (g) x ± SD End ([5]; cyclophosphamide 60 mg/kg × 1, i.p., C57BL/6 mice, end of study): 23.01 ± 1.04 g
- Tumor inhibitory rate (%) [6, 9]: 61.40%
- Tumor weight (g) x ± SD [6, 9]: 1.46 ± 0.54 g
- Body weight (g) x ± SD End ([6]; cyclophosphamide 60 mg/kg × 1, i.p., end of study): 22.58 ± 1.15 g
